What was measured:
Type in all cases: in vivo
[1] = system: Echinochloa oryzacola Vasing.; experiment: Test Example 1: herbicidal activity, application before weed generation in submerged conditions (symbol A); settings: application herbicide amount 320 g/ha
How it was run: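 Greenhouse growth at 25–30 °C lasted 3 weeks after treatment, when each weed was graded 0–5 by herbicidal ratio. Treatment was a diluted emulsion applied to the water surface of 4 cm-submerged alluvial soil on the sowing day.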

[2] = system: Scirpus juncoides; experiment: Test Example 2: herbicidal activity, application during weed generation in submerged conditions (symbol B); settings: Table 23; application herbicide amount 320 g/ha; grade 0-5 by criteria of Test Example 1
How it was run: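 Paddy pot test, submerged (4 cm water), alluvial soil, mixed sowing; greenhouse 25–30° C. Emulsion formulation diluted to predetermined rate, applied onto floodwater at 1–2 leaf stage. Visual herbicidal rating at 3 wk post-treatment.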

[3] = system: Cyperus difformis; experiment: Test Example 3: herbicidal effect by foliage application, Wagner pot (symbol E); settings: application herbicide amount 320 g/ha; for E herbicidal effect grade: Table 24
How it was run: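 Foliar spray of water-diluted emulsion formulation at a predetermined herbicide amount onto 14-day-old plants in flooded alluvial soil (water depth 0.1–0.5 cm), greenhouse 25–30 °C; rice sown alongside. Scored 3 wk post-application on set criteria.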

[4] = system: Echinochloa crus-galli var. crus-galli; experiment: Test Example 4: herbicidal effect by soil treatment (symbol H)
How it was run: (§1)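 Seeds were sown in sterilized diluvial soil, covered with about 1.5 cm of soil, and the soil surface was sprayed with a water-diluted emulsion of the compound at a predetermined rate. Plants grew in a greenhouse at 25° C. to 30° C.; effects were scored visually 3 weeks after application.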

[5] = system: Amaranthus retroflexus; experiment: Test Example 4: herbicidal effect by soil treatment (symbol N)
How it was run: as §1

[6] = system: Galium spurium; experiment: Test Example 4: herbicidal effect by soil treatment (symbol Q)
How it was run: as §1

[7] = system: corn; experiment: Test Example 4: effect on crop by soil treatment (symbol c)
How it was run: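 Plants are raised in a greenhouse (25° C. to 30° C.) from spot-sown seed, which sits under about 1.5 cm of sterilized diluvial soil in a box shared with weed species.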

[8] = system: rapeseed; experiment: Test Example 4: effect on crop by soil treatment (symbol g)
How it was run: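 Crop seed is sown in spots together with several weed species in a box of sterilized diluvial soil. It is covered by about 1.5 cm of soil and kept in a greenhouse held between 25° C. and 30° C.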

[9] = system: Avena fatua; experiment: Test Example 5: herbicidal effect by foliage application, plastic box (symbol I); settings: 320 g/ha, 3 weeks after application
How it was run: (§2)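 Herbicide, formulated as an emulsion and diluted in water, is sprayed onto the aerial parts of 14-day seedlings. These were grown at 25° C. to 30° C. in sterilized diluvial soil; effects are graded after 3 weeks.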

[10] = system: Lolium multiflorum Lam.; experiment: Test Example 5: herbicidal effect by foliage application, plastic box (symbol K); settings: 320 g/ha, 3 weeks after application
How it was run: as §2

[11] = system: Apera spica-venti; experiment: Test Example 5: herbicidal effect by foliage application, plastic box (symbol L); settings: 320 g/ha, 3 weeks after application
How it was run: as §2

[12] = system: Abutilon theophrasti; experiment: Test Example 5: herbicidal effect by foliage application, plastic box (symbol M); settings: 320 g/ha, 3 weeks after application
How it was run: as §2

[13] = system: Amaranthus retroflexus; experiment: Test Example 5: herbicidal effect by foliage application, plastic box (symbol N); settings: 320 g/ha, 3 weeks after application
How it was run: as §2

[14] = system: Stellaria media; experiment: Test Example 5: herbicidal effect by foliage application, plastic box (symbol P); settings: 320 g/ha, 3 weeks after application
How it was run: as §2

[15] = system: Galium spurium; experiment: Test Example 5: herbicidal effect by foliage application, plastic box (symbol Q); settings: 320 g/ha, 3 weeks after application
How it was run: as §2

[16] = system: Veronica persica; experiment: Test Example 5: herbicidal effect by foliage application, plastic box (symbol R); settings: 320 g/ha, 3 weeks after application
How it was run: as §2

[17] = application herbicide amount 320 g/ha

| SMILES | A (Echinochloa oryzacola Vasing.) herbicidal effect grade [1] | Herbicidal effect grade, B: Scirpus juncoides [2] | E herbicidal effect grade [3] | I: Avena fatua, herbicidal effect grade [9] | K: Lolium multiflorum Lam., herbicidal effect grade [10] | L: Apera spica-venti, herbicidal effect grade [11] | M: Abutilon theophrasti, herbicidal effect grade [12] | N: Amaranthus retroflexus, herbicidal effect grade [13] | P: Stellaria media, herbicidal effect grade [14] | Q: Galium spurium, herbicidal effect grade [15] | R: Veronica persica, herbicidal effect grade [16] | Herbicidal effect grade, A: Echinochloa oryzacola Vasing. [1] | herbicidal effect on E, grade 0-5 [3] | Herbicidal effect grade, H: Echinochloa crus-galli var. crus-galli [4, 17] | Herbicidal effect grade, N: Amaranthus retroflexus [5, 17] | Herbicidal effect grade, Q: Galium spurium [6, 17] | Effect on crop grade, c: corn [7, 17] | Effect on crop grade, g: rapeseed [8, 17] | also measured |
| --- | --- | --- | --- | --- | --- | --- | --- | --- | --- | --- | --- | --- | --- | --- | --- | --- | --- | --- | --- |
| CON=C(CC1CC(O)=C(c2c(C)cc(C)cc2OC)C1=O)C1CC1 (mixture of isomers) [13-002] | 5 (Herbicidal ratio of 90% or more (almost completely withered)) | 5 (Herbicidal ratio of 90% or more (almost completely withered)) | 5 (Herbicidal ratio of 90% or more (almost completely withered)) | 5 (Herbicidal ratio of 90% or more (almost completely withered)) | 5 (Herbicidal ratio of 90% or more (almost completely withered)) | 5 (Herbicidal ratio of 90% or more (almost completely withered)) | 2 (Herbicidal ratio of 20% or higher and lower than 40%) | 0 (Herbicidal ratio of 5% or lower (almost no effect)) | 3 (Herbicidal ratio of 40% or higher and lower than 70%) | 4 (Herbicidal ratio of 70% or higher and lower than 90%) | 4 (Herbicidal ratio of 70% or higher and lower than 90%) | – | – | – | – | – | – | – | H: Echinochloa crus-galli var. crus-galli, herbicidal effect grade [4, 17]: 5 (Herbicidal ratio of 90% or more (almost completely withered)); N: Amaranthus retroflexus, herbicidal effect grade [5, 17]: 0 (Herbicidal ratio of 5% or lower (almost no effect)); Q: Galium spurium, herbicidal effect grade [6, 17]: 0 (Herbicidal ratio of 5% or lower (almost no effect)); c: corn, effect on crop grade [7, 17]: 5 (Herbicidal ratio of 90% or more (almost completely withered)); g: rapeseed, effect on crop grade [8, 17]: 1 (Herbicidal ratio of 5% or higher and lower than 20%) |
| CON=C(C)CC1CC(OS(C)(=O)=O)=C(c2c(C)cc(C)cc2C)C1=O (centres unmarked) [1-006] | – | 3 (Herbicidal ratio of 40% or higher and lower than 70%) | – | 5 (Herbicidal ratio of 90% or more (almost completely withered)) | 5 (Herbicidal ratio of 90% or more (almost completely withered)) | 5 (Herbicidal ratio of 90% or more (almost completely withered)) | 4 (Herbicidal ratio of 70% or higher and lower than 90%) | 3 (Herbicidal ratio of 40% or higher and lower than 70%) | 0 (Herbicidal ratio of 5% or lower (almost no effect)) | 0 (Herbicidal ratio of 5% or lower (almost no effect)) | 2 (Herbicidal ratio of 20% or higher and lower than 40%) | 5 (Herbicidal ratio of 90% or more (almost completely withered)) | 5 (Herbicidal ratio of 90% or more (almost completely withered)) | – | – | – | – | – | H (Echinochloa crus-galli var. crus-galli) herbicidal effect grade [4, 17]: 5 (Herbicidal ratio of 90% or more (almost completely withered)); N (Amaranthus retroflexus) herbicidal effect grade [5, 17]: 4 (Herbicidal ratio of 70% or higher and lower than 90%); Q (Galium spurium) herbicidal effect grade [6, 17]: 0 (Herbicidal ratio of 5% or lower (almost no effect)); c (corn) effect on crop grade [7, 17]: 1 (Herbicidal ratio of 5% or higher and lower than 20%); g (rapeseed) effect on crop grade [8, 17]: 0 (Herbicidal ratio of 5% or lower (almost no effect)) |
| CON=C(C)CC1CC(OC(=O)CN(C)C(=O)c2ccccc2)=C(c2c(C)cc(C)cc2C)C1=O (centres unmarked) [1-139] | – | 4 (Herbicidal ratio of 70% or higher and lower than 90%) | – | – | – | – | – | – | – | – | – | 5 (Herbicidal ratio of 90% or more (almost completely withered)) | 5 (Herbicidal ratio of 90% or more (almost completely withered)) | – | – | – | – | – | H: Echinochloa crus-galli var. crus-galli, herbicidal effect grade ([4]; 320 g/ha): 5 (Herbicidal ratio of 90% or more (almost completely withered)); N: Amaranthus retroflexus, herbicidal effect grade ([5]; 320 g/ha): 3 (Herbicidal ratio of 40% or higher and lower than 70%); Q: Galium spurium, herbicidal effect grade ([6]; 320 g/ha): 0 (Herbicidal ratio of 5% or lower (almost no effect)); c: corn, effect grade on crop ([7]; 320 g/ha): 5 (Herbicidal ratio of 90% or more (almost completely withered)); g: rapeseed, effect grade on crop ([8]; 320 g/ha): 1 (Herbicidal ratio of 5% or higher and lower than 20%); I: Avena fatua, herbicidal effect (criteria 0-5) [9]: 5 (Herbicidal ratio of 90% or more (almost completely withered)); K: Lolium multiflorum Lam., herbicidal effect (criteria 0-5) [10]: 5 (Herbicidal ratio of 90% or more (almost completely withered)); L: Apera spica-venti, herbicidal effect (criteria 0-5) [11]: 5 (Herbicidal ratio of 90% or more (almost completely withered)); M: Abutilon theophrasti, herbicidal effect (criteria 0-5) [12]: 2 (Herbicidal ratio of 20% or higher and lower than 40%); N: Amaranthus retroflexus, herbicidal effect (criteria 0-5) [13]: 0 (Herbicidal ratio of 5% or lower (almost no effect)); P: Stellaria media, herbicidal effect (criteria 0-5) [14]: 3 (Herbicidal ratio of 40% or higher and lower than 70%); Q: Galium spurium, herbicidal effect (criteria 0-5) [15]: 3 (Herbicidal ratio of 40% or higher and lower than 70%); R: Veronica persica, herbicidal effect (criteria 0-5) [16]: 2 (Herbicidal ratio of 20% or higher and lower than 40%) |
| CC#Cc1cc(C)c(C2=C(O)CC(CC(=NOCCOC)C(C)C)C2=O)c(C)c1 (centres unmarked) [9-023] | 5 (Herbicidal ratio of 90% or more (almost completely withered)) | 4 (Herbicidal ratio of 70% or higher and lower than 90%) | 5 (Herbicidal ratio of 90% or more (almost completely withered)) | 4 (Herbicidal ratio of 70% or higher and lower than 90%) | 5 (Herbicidal ratio of 90% or more (almost completely withered)) | 5 (Herbicidal ratio of 90% or more (almost completely withered)) | 0 (Herbicidal ratio of 5% or lower (almost no effect)) | 0 (Herbicidal ratio of 5% or lower (almost no effect)) | 3 (Herbicidal ratio of 40% or higher and lower than 70%) | 0 (Herbicidal ratio of 5% or lower (almost no effect)) | 3 (Herbicidal ratio of 40% or higher and lower than 70%) | – | – | 5 (Herbicidal ratio of 90% or more (almost completely withered)) | 5 (Herbicidal ratio of 90% or more (almost completely withered)) | 0 (Herbicidal ratio of 5% or lower (almost no effect)) | 3 (Herbicidal ratio of 40% or higher and lower than 70%) | 4 (Herbicidal ratio of 70% or higher and lower than 90%) | – |
| Cc1cc(Br)cc(C)c1C1=C(O)CC(CC(=O)C(C)C)C1=O (racemic) [10-003] | 1 (Herbicidal ratio of 5% or higher and lower than 20%) | 0 (Herbicidal ratio of 5% or lower (almost no effect)) | 0 (Herbicidal ratio of 5% or lower (almost no effect)) | 3 (Herbicidal ratio of 40% or higher and lower than 70%) | 4 (Herbicidal ratio of 70% or higher and lower than 90%) | 3 (Herbicidal ratio of 40% or higher and lower than 70%) | 0 (Herbicidal ratio of 5% or lower (almost no effect)) | 0 (Herbicidal ratio of 5% or lower (almost no effect)) | 0 (Herbicidal ratio of 5% or lower (almost no effect)) | 0 (Herbicidal ratio of 5% or lower (almost no effect)) | 0 (Herbicidal ratio of 5% or lower (almost no effect)) | – | – | 5 (Herbicidal ratio of 90% or more (almost completely withered)) | 0 (Herbicidal ratio of 5% or lower (almost no effect)) | 0 (Herbicidal ratio of 5% or lower (almost no effect)) | 0 (Herbicidal ratio of 5% or lower (almost no effect)) | 0 (Herbicidal ratio of 5% or lower (almost no effect)) | – |

Source: patent US11000033B2, “Ketone or oxime compound, and herbicide” (NISSAN CHEMICAL CORPORATION, priority 2014, dated 2021)
